Assay results from patent EP1149072B1, “SULFONAMIDE HYDROXAMATES” (F. HOFFMANN-LA ROCHE AG, priority 1998, dated 2000).

Columns and labels:
Type in all cases: biochemical
[1] = target: T1, Procollagen C-Proteinase (PCP) (Homo sapiens, UniProt P13497); test: Inhibition of Procollagen C-Proteinase activity, Assay A (continuous fluorescence assay, synthetic peptide substrate); settings: Assay A from Ex. 21; 20 µM substrate, pH 7.5, 30°C
T1 construct: made in house; enzyme purified from culture fluid
T1 sequence (P13497 121-730 isoform P13497-2 limits assumed): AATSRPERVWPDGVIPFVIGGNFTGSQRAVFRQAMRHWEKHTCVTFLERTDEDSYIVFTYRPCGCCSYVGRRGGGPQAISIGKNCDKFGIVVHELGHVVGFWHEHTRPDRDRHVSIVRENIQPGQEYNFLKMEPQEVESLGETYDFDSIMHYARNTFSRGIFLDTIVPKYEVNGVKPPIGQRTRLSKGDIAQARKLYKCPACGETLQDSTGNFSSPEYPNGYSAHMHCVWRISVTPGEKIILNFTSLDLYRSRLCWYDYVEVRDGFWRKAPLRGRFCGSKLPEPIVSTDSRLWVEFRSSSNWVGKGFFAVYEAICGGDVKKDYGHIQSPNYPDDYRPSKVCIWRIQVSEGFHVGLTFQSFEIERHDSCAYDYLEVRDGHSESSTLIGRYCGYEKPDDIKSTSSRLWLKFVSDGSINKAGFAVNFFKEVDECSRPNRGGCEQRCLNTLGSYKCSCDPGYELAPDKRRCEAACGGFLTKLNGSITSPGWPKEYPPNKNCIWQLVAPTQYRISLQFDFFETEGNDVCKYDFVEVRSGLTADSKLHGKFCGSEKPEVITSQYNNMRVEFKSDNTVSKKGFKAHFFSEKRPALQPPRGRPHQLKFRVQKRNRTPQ
Protocol: Human Procollagen C-Proteinase (PCP, also known as Bone Morphogenetic Protein-1 or BMP-1) was cloned from a human fibroblast cDNA library (Stratagene, San Diego, CA). Cloning was performed by PCR based on the reported nucleotide sequence (Wozney, J.M., Rosen,V., Celeste, A.J., Mitsock, L.M., Whitters, M.J., Kriz, R.W., Hewick, R.M., and Wang, E.A. (1989) direct GenBank submission accession M22488, locus HUMBMP1) using Taq polymerase, the 5' primer […] […] […] (SEQ ID NO:1) (Oligo Therapeutics, Inc., Wilsonville, OR), and the 3' reverse strand primer […] TTGAGCTGGTG (SEQ ID NO:2) (Gibco) to yield the entire full-length nucleotide encoding the signal sequence, propeptide, catalytic domain, and all C-terminal domains to the natural translation termination site. The PCR product was purified by gel electrophoresis using the Wizard DNA Purification Kit (Promega, Madison, WI) and ligated directly into the mammalian expression vector pCR3.1 (Invitrogen, Carlsbad, CA) by the TA cloning method. Ligated product was used to transform E coli strain TOP10F' (Invitrogen, Carlsbad, CA) by a standard heat-shock method, and transformants were selected by restriction analysis of purified plasmid using the enzymes HindIII and BamHI. Transformants testing positive for the PCP insert were submitted for sequencing using the Perkin-Elmer / ABI system. Two clones were selected that, when combined, encoded the entire amino acid sequence identical to the one predicted by Wozney et al. The two clones were recombined by restriction using the enzymes BbrI, which cleaved at a naturally occurring internal site, and EcoRV, which cleaved at the junction of the insert and vector. The excised fragments were religated into EcoRV-treated pCR3.1. The resulting construct contained the entire coding sequence identical to that reported by Wozney et al. with the exception of two silent mutations in the signal sequence, G->A at both positions 39 and 45 counting from the translation initiation site (ATG). The completed plasmid construct was amplified in E. coli DH5a and purified using anion exchange chromatography (MaxiPrep columns from Qiagen (Valencia, CA) catalog #12162).
A column packed with Dyematrex Gel Green A (Millipore, Bedford, MA) was equilibrated against 50 mM HEPES, pH7.2, containing 6mM CaCl2 and 0.3M NaCl. After the HT1080 cell culture fluid was loaded, the column was washed with 10 column volumes of the equilibration buffer containing 1.0 M NaCl. PCP was eluted with 50 mM HEPES pH 7.2 containing 3 M NaCl, 2 M urea and 6 mM CaCl2. Eluate fractions were pooled and concentrated to 150-200 ml and dialyzed against 4.0 liters of 50 mM HEPES, 6 mM CaCl2, pH 7.2 overnight. The material was then centrifuged at 5,000 g for 15 minutes to remove precipitates. The PCP containing sample were stored at -20 °C until ready for further processing. The PCP containing sample was thawed and diluted with 50 mM HEPES pH 7.2 containing 6 mM CaCl2, if necessary to bring the NaCl concentration to 0.1-0.15 M. The pH was adjusted to 6.7 with 2 N HCl. The protein solution was filtered through a 0.45 µm filter to remove any precipitate. This preparation was then loaded onto a column packed with Q-Sepharose High Performance (Pharmacia, Piscataway, NJ) which had been equilibrated with 50mM HEPES pH 6.7 containing 6 mM CaCl2 and 0.15 M NaCl. The PCP was not retained in the column and was therefore in the flow through fractions. The PCP was concentrated to 1 mg/ml and used for screening.
Culture fluid from the drosophila cells was concentrated 8 fold and the pH adjusted to 7.1-7.2 if necessary. The culture fluid was centrifuged at 3000 g for 10 minutes and filtered through 0.45 µm filters. The culture fluid was then loaded onto columns packed with carboxy-sulfone packing material (J.T. Baker/Mallinckrodt, Phillipsburg, NJ) which had been equilibrated with 0.1 M NaCl, 50 mM HEPES, 6 mM CaCl2, pH 7.2. […]

collagenase-1 = target: T2, collagenase-1 (Homo sapiens, UniProt P03956); test: Measurement of collagenase activity (hydrolysis of fluorogenic peptide MCA-Pro-Leu-Gly-Leu-DPA-Ala-Arg-NH2); settings: based on inhibitory data from Assay A of Ex. 21 and the Assay of Ex. 22
T2 construct: the collagenase-1 catalytic domain was released by treatment with 1mM of aminophenylmercuric acetate (APMA); ubiquitin (cleaved yes); made in house; host or cells: E. coli
T2 sequence (P03956 100-269 limits assumed): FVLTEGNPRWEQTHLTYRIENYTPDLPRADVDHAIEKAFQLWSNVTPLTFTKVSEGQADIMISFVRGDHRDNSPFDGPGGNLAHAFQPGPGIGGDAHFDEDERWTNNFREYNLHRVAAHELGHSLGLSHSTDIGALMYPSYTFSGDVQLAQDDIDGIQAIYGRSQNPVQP
Protocol: (§1) The catalytic domain of human collagenase-1 was expressed as a fusion protein with ubiquitin in E. Coli as described in Gehring, E.R. et al., J. Biol. Chem., 270, 22507, (1995). After purification of the fusion protein, the collagenase-1 catalytic domain was released by treatment with 1mM of aminophenylmercuric acetate (APMA) for 1 hour at 37 °C and then purified by zinc chelate chromatography. Human collagenase-2 and gelatinase B were isolated in active form from buffy coats as described in Mookhtiar, K.A. et al., Biochemistry, 29, 10620, (1990). The propeptide and catalytic domain portion of human collagenase-3 was expressed in E. Coli as an N-terminal fusion protein with ubiquitin. After purification, the catalytic domain was released by treatment with 1 mM APMA for 1 hour at 37 ° C, and then purified by zinc chelate chromatography. Rat collagenase-3 was purified in active form from the culture media of uterine smooth muscle cells as described in Roswit, W.T. et al., Arch. Biochem. Biophys., 225, 285-295 (1983).
(§2) The collagenase-1, collagenase-2 and collagenase-3 inhibitory activity of compounds of this invention in vitro was determined based on the hydrolysis of MCA-Pro-Leu-Gly-Leu-DPA-Ala-Arg-NH2 (SEQ ID NO:8) (Bachem, Inc.) at 37°C as described in Knight, C.G., et al., FEBS Lett., 296(3): 263-266 (1992). The collagenase enzyme was diluted with assay buffer (50 mM Tricine pH 7.5, 200 mM NaCl, 10 mM CaCl2, and 0.005% Brij-35) containing […] of above substrate dissolved in DMSO. Compounds of the invention dissolved in DMSO or only DMSO (control samples) were added such that the final DMSO concentration in all assays was 2.5%. The fluorescence changes were monitored with a Perkin-Elmer LS-50B flourimeter using an excitation wavelength of 328 nm and an emission wavelength of 393 nm.

collagenase-2 = target: T3, collagenase-2 (Homo sapiens, UniProt P22894); test: as above; settings: based on inhibitory data from Assay A of Ex. 21 and the Assay of Ex. 22
T3 construct: Human collagenase-2 and gelatinase B were isolated in active form from buffy coats; from tissue; host or cells: human buffy coats (blood leukocytes)
T3 sequence (P22894 101-467): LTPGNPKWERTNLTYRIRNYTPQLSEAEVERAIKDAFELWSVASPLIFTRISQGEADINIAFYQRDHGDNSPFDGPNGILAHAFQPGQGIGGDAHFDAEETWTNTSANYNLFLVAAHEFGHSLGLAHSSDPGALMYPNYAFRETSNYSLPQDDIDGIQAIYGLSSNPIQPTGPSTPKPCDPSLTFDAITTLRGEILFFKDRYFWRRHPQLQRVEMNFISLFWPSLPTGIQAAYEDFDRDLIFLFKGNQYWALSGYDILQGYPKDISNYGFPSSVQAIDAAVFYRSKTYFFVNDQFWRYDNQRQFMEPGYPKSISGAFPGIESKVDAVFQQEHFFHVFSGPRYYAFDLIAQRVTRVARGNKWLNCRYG
Protocol: as §1, §2

collagenase-3 = target: T4, collagenase-3 (Homo sapiens, UniProt P45452); test: as above; settings: based on inhibitory data from Assay A of Ex. 21 and the Assay of Ex. 22
T4 construct: After purification, the catalytic domain was released by treatment with 1 mM APMA for 1 hour; ubiquitin (N, cleaved yes); made in house; host or cells: E. coli
Protocol: as §1, §2

COc1cc(C)c(S(=O)(=O)N(Cc2ccc3[nH]ccc3c2)[C@@H](C(=O)NO)C(C)C)cc1C [Cmpd 145, N-hydroxy-2(R)-2-[(1H-indol-5-ylmethyl)-(4-methoxy-2,5-dimethylbenzenesulfonyl)-amino]-3-methylbutyramide]
IC50 [1]: 110 nM | Selectivity for PCP/Col-1 (collagenase-1): 400.0 | Selectivity for PCP/Col-2 (collagenase-2): 136.4

COc1cc(C)c(S(=O)(=O)N(Cc2ccc3[nH]ccc3c2)[C@H](COC(C)(C)C)C(=O)NO)c(C)c1C [Cmpd 15, N-Hydroxy-2(R)-[(4-methoxy-2,5,6-trimethylbenzenesulfonyl)-(1H-indol-5-ylmethyl)amino]-3-tert-butoxypropionamide]
IC50 [1]: 66 nM | Selectivity for PCP/Col-1 (collagenase-1): 515.1 | Selectivity for PCP/Col-2 (collagenase-2): 454.5

COc1cc(C)c(S(=O)(=O)N(Cc2ccc3[nH]cnc3c2)[C@@H](C(=O)NO)C(C)C)c(C)c1C [Cmpd 82]
IC50 [1]: 40 nM | Selectivity for PCP/Col-1 (collagenase-1): 1775.0 | Selectivity for PCP/Col-2 (collagenase-2): 250.0 | Selectivity for PCP/Col-3 (collagenase-3): 1950.0

COc1cc(C)c(S(=O)(=O)N(Cc2ccc3c(c2)OCO3)[C@@H](C(=O)NO)C(C)C)c(C)c1 [Cmpd 40, N-hydroxy-2(R)-2-[(3,4-methylenedioxybenzyl)-(4-methoxy-2,6-dimethylbenzene-sulfanyl)amino]-3-methylbutyramide]
IC50 [1]: 68 nM | Selectivity for PCP/Col-1 (collagenase-1): 367.6 | Selectivity for PCP/Col-2 (collagenase-2): 55.9

COc1cc(C)c(S(=O)(=O)N(Cc2ccc3[nH]cc(C(C)=O)c3c2)[C@@H](C(=O)NO)C(C)C)c(C)c1C [Cmpd 126, N-hydroxy-2(R)-[(1H-3-acetyl-indol-5-ylmethyl)-(4-methoxy-2,3,6-trimethylbenzenesulfonyl)amino]-3-methylbutyramide]
IC50 [1]: 26 nM

COc1cc(C)c(S(=O)(=O)N(Cc2ccc3c(c2)OCO3)[C@H](CNS(C)(=O)=O)C(=O)NO)c(C)c1 [Cmpd 128, N-hydroxy-2(R)-[(3,4-methylendioxybenzyl)-(2,6-dimethyl-4-methoxybenzenesulfonyl)amino]-3-(methanesulfonyl)amino-propionamide]
IC50 [1]: 30 nM

COc1cc(C)c(S(=O)(=O)N(Cc2ccc3c(c2)OCO3)[C@H](CO)C(=O)NO)c(C)c1C [Cmpd 5, N-hydroxy-2(R)-[(3,4-methylenedioxybenzyl)-(4-methoxy-2,3,6-trimethylbenzenesulfonyl)amino)-3-hydroxypropionamide]
IC50 [1]: 73 nM | Selectivity for PCP/Col-1 (collagenase-1): 520.5 | Selectivity for PCP/Col-2 (collagenase-2): 123.3

COc1cc(C)c(S(=O)(=O)N(Cc2ccc3c(c2)OCO3)[C@@H](C(=O)NO)C(C)C)c(C)c1C [Cmpd 12, N-hydroxy-2(R)-[(3,4-methylenedioxybenzyl)-(4-methoxy-2,3,6-trimethylbenzenesulfonyl)amino]-3-methylbutyramide]
IC50 [1]: 69 nM | Selectivity for PCP/Col-1 (collagenase-1): 89.9 | Selectivity for PCP/Col-2 (collagenase-2): 23.2 | Selectivity for PCP/Col-3 (collagenase-3): 14.5
